Reference: the supplement of paper PMC10307832

How the values were obtained:
Experiment in all cases: relative viability (nuclei count vs DMSO), 5 days (fraction); higher = more cells survive
[1] = compound: CC(C)(C)c1cc(NC(=O)Nc2ccc(-c3cn4c(n3)sc3cc(OCCN5CCOCC5)ccc34)cc2)no1 [Quizartinib] + NC(=O)Nc1cc(-c2cccc(F)c2)sc1C(=O)N[C@H]1CCCNC1 [AZD7762] (partner 0.2 µM)
In short: (§1)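 Cells from lung cancer lines were seeded into 1536-well plates and, one day later, dosed by pin tool. Treatments were either a single drug or a fixed dose of an anchor drug with five library-drug doses (not always all listed) in √10 steps. After 5 days, nuclei were stained in a one-step fixation (final 0.05% Triton X-100, 1% formaldehyde, 1 ug/ml Hoechst) and counted on 4× images, and relative viability is the treated-to-vehicle nuclei ratio, as the median of duplicate plates.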

[2] = compound: CC(C)(C)c1cc(NC(=O)Nc2ccc(-c3cn4c(n3)sc3cc(OCCN5CCOCC5)ccc34)cc2)no1 [Quizartinib] + O=C(c1cc(Cc2n[nH]c(=O)c3ccccc23)ccc1F)N1CCN(C(=O)C2CC2)CC1 [Olaparib] (partner 8 µM)
In short: as §1

[3] = compound: COCC[n+]1c2c(n(Cc3cnccn3)c1C)C(=O)c1ccccc1C2=O [YM155] + C[C@@H](Oc1cc(-c2cnn(C3CCNCC3)c2)cnc1N)c1c(Cl)ccc(F)c1Cl [Crizotinib] (partner 1 µM)
In short: as §1

[4] = compound: COCC[n+]1c2c(n(Cc3cnccn3)c1C)C(=O)c1ccccc1C2=O [YM155] + COc1cc2c(Oc3ccc(NC(=O)C4(C(=O)Nc5ccc(F)cc5)CC4)cc3F)ccnc2cc1OCCCN1CCOCC1 [Foretinib] (partner 0.25 µM)
In short: as §1

Row | Cell Line | relative viability ([1]; first compound 0.001 µM) | relative viability ([1]; first compound 0.003162 µM) | relative viability ([1]; first compound 0.01 µM) | relative viability ([1]; first compound 0.03162 µM) | relative viability ([1]; first compound 0.1 µM) | relative viability ([2]; first compound 0.001 µM) | relative viability ([2]; first compound 0.003162 µM) | relative viability ([2]; first compound 0.01 µM) | relative viability ([2]; first compound 0.03162 µM) | relative viability ([2]; first compound 0.1 µM) | relative viability ([3]; first compound 0.002 µM) | relative viability ([3]; first compound 0.006325 µM) | relative viability ([3]; first compound 0.02 µM) | relative viability ([3]; first compound 0.06325 µM) | relative viability ([4]; first compound 0.002 µM) | relative viability ([4]; first compound 0.006325 µM) | relative viability ([4]; first compound 0.02 µM) | relative viability ([4]; first compound 0.06325 µM)
1 | HCC-44 | 0.976 | 1.04 | 0.988 | 1.02 | 1.02 | 0.934 | 0.982 | 1.03 | 0.981 | 0.952 | 0.805 | 0.755 | 0.845 | 0.776 |  |  |  | 
2 | IA-LM |  |  |  |  |  | 0.908 | 0.796 | 0.851 | 0.75 | 0.74 | 0.825 | 0.766 | 0.685 | 0.548 | 1.15 | 1.03 | 1.33 | 0.975
3 | NCI-H520 |  |  |  |  |  |  | 0.308 | 0.367 | 0.352 | 0.29 | 0.755 | 0.725 | 0.835 | 0.66 | 0.662 | 0.671 | 0.68 | 0.831
4 | NCI-H522 | 0.849 | 0.775 | 0.675 | 0.871 | 0.778 | 0.61 | 0.764 | 0.716 | 0.6 | 0.783 |  |  |  |  |  |  |  | 
5 | NCI-H661 |  |  |  |  |  | 0.727 | 0.712 | 0.751 | 0.733 | 0.723 | 1.01 | 0.942 | 1.05 | 0.798 | 1.03 | 1.02 | 1.03 | 0.494
6 | NCI-H1299 |  |  |  |  |  | 0.949 | 0.967 | 0.987 | 0.995 | 0.984 | 0.92 | 0.953 | 0.951 | 0.767 | 1.12 | 1.07 | 1.16 | 1.04
7 | NCI-H1395 | 0.477 | 0.395 | 0.46 | 0.367 | 0.367 | 0.476 | 0.455 | 0.489 | 0.444 | 0.512 |  |  |  |  | 0.943 | 0.91 | 0.984 | 1.01
8 | NCI-H1563 |  |  |  |  |  |  |  |  |  |  | 0.915 | 0.802 | 0.838 | 0.886 | 0.89 | 0.935 | 1.09 | 1.02
9 | NCI-H1623 |  |  |  |  |  |  |  |  |  |  |  |  |  |  | 0.89 | 0.865 | 0.987 | 0.872
10 | NCI-H1650 |  |  |  |  |  | 0.793 | 0.816 | 0.607 |  | 0.737 | 0.924 | 0.974 | 0.717 | 0.286 | 1.07 | 1.11 | 0.932 | 0.57
11 | NCI-H1792 | 0.547 | 0.654 | 0.691 | 0.496 | 0.604 | 0.443 | 0.381 | 0.54 | 0.483 | 0.312 | 1 | 1.05 | 0.994 | 0.984 |  |  |  | 
12 | NCI-H1793 | 0.483 | 0.414 | 0.451 | 0.409 | 0.259 | 0.765 | 0.684 | 0.855 | 0.808 | 0.835 |  |  |  |  | 0.626 | 0.875 | 0.675 | 0.79
13 | NCI-H2009 |  |  |  |  |  | 0.658 | 0.64 | 0.628 | 0.54 | 0.597 | 1.02 | 0.992 | 0.725 | 0.0795 | 1.24 | 1.21 | 1.09 | 0.583
14 | NCI-H2023 |  |  |  |  |  | 0.418 | 0.422 | 0.513 |  | 0.417 | 0.719 | 0.734 | 0.717 | 0.361 | 0.999 | 0.662 | 0.767 | 0.368
15 | NCI-H2228 |  |  |  |  |  | 0.696 | 0.729 | 1.02 | 0.707 | 0.807 | 0.527 | 0.445 | 0.368 | 0.563 | 0.772 | 0.912 | 0.867 | 0.708
16 | NCI-H2342 | 0.505 | 0.637 | 0.471 | 0.544 | 0.518 | 0.415 | 0.474 | 0.51 | 0.388 | 0.395 |  |  |  |  | 1 | 1.14 | 1.14 | 1.03
17 | SK-LU-1 |  |  |  |  |  | 0.462 | 0.469 | 0.458 | 0.467 | 0.432 | 0.871 | 0.931 | 1.11 | 0.805 | 0.766 | 0.738 | 0.904 | 0.661
18 | SK-MES-1 |  |  |  |  |  | 0.685 | 0.678 | 0.805 |  | 0.732 | 1.01 | 0.963 | 1.07 | 0.85 | 0.9 | 0.889 | 0.921 | 0.921
19 | SW 900 | 0.711 | 0.498 | 0.597 | 0.532 | 0.58 | 0.803 | 0.871 | 0.968 | 0.921 | 0.885 |  |  |  |  | 0.874 | 0.622 | 1.15 | 0.905
20 | SW 1573 |  |  |  |  |  | 0.292 | 0.538 | 0.572 |  | 0.581 | 0.767 | 0.877 | 0.902 | 0.581 | 0.986 | 0.974 | 0.92 | 0.877
21 | UMC-11 |  |  |  |  |  | 0.365 | 0.349 | 0.464 | 0.315 | 0.471 | 0.525 | 0.602 | 0.684 | 0.505 | 0.966 | 1.1 | 1.08 | 1.12
